As usually defined, the IC50 is the concentration that inhibits the measured activity by half. As usually defined, the MIC is the least concentration at which growth counts as inhibited. Lower therefore signals inhibition by little substance.

Experiment [1] is described as follows: Inhibition of recombinant Staphylococcus aureus ATCC 6538p sortase A using dabcyl-LPETG-edans as substrate incubated for 2 hrs by fluorometric method.
Experiment [2] concerns Staphylococcus aureus. In words: Antimicrobial activity against Staphylococcus aureus ATCC 6538p. Format: functional.
The test system of experiment [3] is Staphylococcus aureus. In words: Inhibition of Staphylococcus aureus Newman sortase A assessed as […] in fibrinogen-mediated cell clumping after 2 hrs. The settings on record: dose microM 25-100, time 2.0 hrs.
Experiment [4] concerns Staphylococcus aureus. Put plainly: Inhibition of Staphylococcus aureus Newman sortase A assessed as […] in fibrinogen-mediated cell clumping at 100 uM after 2 hrs.
Experiment [5] has as its system Staphylococcus aureus. In words: Inhibition of Staphylococcus aureus Newman sortase A assessed as reduction in bacterial adherence to fibronectin-coated surfaces up to 4 times of IC50 concentration for every 30 mins for 2.5 hrs. The settings on record: time hrs <=2.5.

Structures are written as SMILES. In brackets after ≈: the same amount, converted by molar mass. Activity calls are given as the source filed them. No cut-off for these calls is given here.

On to `COC(C)(C)[C@H](O)COc1ccc2ccc(=O)oc2c1C[C@H](O)C(C)(C)O`, for which the IC50 in experiment [1] is 76 µM. In the experiment with Staphylococcus aureus [2], this compound displayed an MIC above 337 µM.
In the experiment on Staphylococcus aureus [2], `CC1(C)S[C@@H]2[C@H](NC(=O)[C@H](N)c3ccccc3)C(=O)N2[C@H]1C(=O)O` [AMPICILLIN] had an MIC of 0.18 µM (≈ 0.0629 µg/mL).
On to `C=C(C)[C@H](CC/C(C)=C/COc1ccc2ccc(=O)oc2c1)OO`, for which the IC50 in experiment [1] was 23.5 µM. The same compound came in with an MIC against Staphylococcus aureus [2] above 388 µM. In the experiment with Staphylococcus aureus [3], the inhibition result is “Dose-dependent effect”. Further, the fold change (FC) in the experiment on Staphylococcus aureus [4] is above 2.
On to `O=C(O)/C=C/c1ccc(O)cc1` [COUMARIC ACID], for which the IC50 in experiment [1] is above 780 µM. This compound registered an MIC in the experiment on Staphylococcus aureus [2] above 780 µM.
As to `CC(C)C(=O)Cc1c(OC[C@@H](O)C(C)(C)O)ccc2ccc(=O)oc12`, the IC50 in experiment [1] was found to be 34.5 µM. In the experiment with Staphylococcus aureus [2], this compound returned an MIC above 368 µM. The inhibition entry in the experiment with Staphylococcus aureus [3] is “Dose-dependent effect”. For the same compound, the fold change (FC) in the experiment with Staphylococcus aureus [4] is above 2. The inhibition entry in the experiment on Staphylococcus aureus [5] was “Active”.
The matching figures for `COC(C)(C)[C@@H](O)Cc1c(OC[C@@H](O)C(C)(C)O)ccc2ccc(=O)oc12`: 26.6 µM, above 337 µM, “Dose-dependent effect”, above 2 and “Active”.
Consider `CC(C)(O)[C@H](O)COc1ccc2ccc(=O)oc2c1C[C@H](O)C(C)(C)O`, for which, in experiment [1], the IC50 stood at 47.2 µM. In the experiment on Staphylococcus aureus [2], this compound had an MIC above 350 µM. Besides, the inhibition result in the experiment on Staphylococcus aureus [3] was “Dose-dependent effect”. In addition, in the experiment on Staphylococcus aureus [4], the fold change (FC) is above 2.
As for `C=C(C)[C@H](O)COc1ccc2ccc(=O)oc2c1CC(=O)C(C)C`, the IC50 in experiment [1] was determined as 112 µM. The compound further had an MIC against Staphylococcus aureus [2] above 388 µM.
As to `CC(C)(O)[C@H](O)COc1c2ccoc2cc2oc(=O)ccc12` [OXYPEUCEDANIN HYDRATE], the IC50 in experiment [1] is 230 µM. In addition, the MIC with Staphylococcus aureus [2] was above 421 µM.
In the experiment with Staphylococcus aureus [2], `O=c1ccc2ccc(O)cc2o1` [UMBELLIFERONE] showed an MIC above 790 µM.
Consider `C/C(=C\COc1ccc2ccc(=O)oc2c1)C/C=C/C(C)(C)OO`, for which, in experiment [1], the IC50 came to 19.1 µM. This compound also gave an MIC against Staphylococcus aureus [2] above 388 µM. Further, in the experiment on Staphylococcus aureus [3], the inhibition entry is “Dose-dependent effect”. In addition, the fold change (FC) in the experiment on Staphylococcus aureus [4] was above 2. Besides, the inhibition result in the experiment on Staphylococcus aureus [5] is “Active”.
Turning to `COC(C)(C)[C@H](O)COc1ccc2ccc(=O)oc2c1CC(=O)C(C)C`, in experiment [1], the IC50 worked out at 119 µM. The compound further yielded an MIC in the experiment on Staphylococcus aureus [2] above 353 µM.

These data come from ChEMBL document CHEMBL4665842, “Sortase A-Inhibitory Coumarins from the Folk Medicinal Plant Poncirus trifoliata” (J Nat Prod, 2020).
